From US6495528B1 (SmithKline Beecham Corporation, priority 1998, dated 2002) come the findings set out here.

Holding throughout (assay type): cell-based
The target in test [1] is T1, human adenosine 1 receptor (Homo sapiens, UniProt P30542).
T1 construct: expressed in transfected cells; host or cells: Chinese hamster ovary (CHO) cells, also transfected with a CRE-SPAP reporter
T1 sequence (P30542 1-326): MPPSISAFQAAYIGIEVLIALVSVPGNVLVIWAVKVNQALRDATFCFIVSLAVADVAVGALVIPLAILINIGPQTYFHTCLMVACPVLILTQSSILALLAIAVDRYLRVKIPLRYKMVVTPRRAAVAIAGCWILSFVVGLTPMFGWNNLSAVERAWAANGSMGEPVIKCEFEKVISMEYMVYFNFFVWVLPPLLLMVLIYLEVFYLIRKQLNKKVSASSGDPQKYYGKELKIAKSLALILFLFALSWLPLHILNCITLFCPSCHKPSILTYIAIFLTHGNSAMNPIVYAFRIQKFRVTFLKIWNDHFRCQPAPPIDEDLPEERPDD
As to the kind of experiment: Agonist activity at adenosine 1 receptor, CHO cells with CRE-SPAP reporter (forskolin-enhanced cAMP). As to conditions: CHO cells transfected with human A1 receptor; effect on forskolin-enhanced cAMP via SPAP; ratio to NECA; minimum values (about 20% inactive impurity). On the procedure:
(§1) (1) Agonist activity against adenosine 2a, adenosine 1 and adenosine 3 receptor subtypes.
(§2) Agonist selectivity of compounds against other human adenosine receptors is determined using Chinese hamster ovary (CHO) cells transfected with the gene for the relevant human adenosine receptor following a method based on that of Castanon and Spevak, 1994. The CHO cells are also transfected with cyclic AMP response elements promoting the gene for secreted placental alkaline phosphatase (SPAP) (Wood, 1995). The effect of test compounds is determined by their effects on basal levels of cAMP (A2a ) or on forskolin-enhanced cAMP (A1 and A3) as reflected by changes in levels of SPAP. EC50 values for compounds are then determined as a ratio to that of the non-selective agonist N-ethyl carboxamide adenosine (NECA).

In test [2] the target is T2, human adenosine 3 receptor (Homo sapiens, UniProt P0DMS8).
T2 construct: expressed in transfected cells; host or cells: Chinese hamster ovary (CHO) cells, also transfected with a CRE-SPAP reporter
T2 sequence (P0DMS8 1-318): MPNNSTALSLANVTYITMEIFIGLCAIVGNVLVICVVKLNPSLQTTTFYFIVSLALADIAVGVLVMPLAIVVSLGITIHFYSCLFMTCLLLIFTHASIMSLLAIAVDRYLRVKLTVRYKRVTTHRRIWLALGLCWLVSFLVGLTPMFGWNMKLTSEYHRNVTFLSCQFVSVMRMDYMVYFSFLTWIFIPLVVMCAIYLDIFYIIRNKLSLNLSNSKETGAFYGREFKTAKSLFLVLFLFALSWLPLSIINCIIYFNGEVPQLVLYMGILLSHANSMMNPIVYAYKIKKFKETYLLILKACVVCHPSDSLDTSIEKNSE
As to the kind of experiment: Agonist activity at adenosine 3 receptor, CHO cells with CRE-SPAP reporter (forskolin-enhanced cAMP). The note with it: CHO cells transfected with human A3 receptor; effect on forskolin-enhanced cAMP via SPAP; ratio to NECA; minimum values (about 20% inactive impurity). On the procedure: as §1, §2

For test [3], the target named is T3, human adenosine 2a receptor (Homo sapiens, UniProt P29274).
T3 construct: expressed in transfected cells; host or cells: Chinese hamster ovary (CHO) cells, also transfected with a CRE-SPAP reporter
As to the kind of experiment: Agonist activity at adenosine 2a receptor, CHO cells with CRE-SPAP reporter (basal cAMP). As to conditions: CHO cells transfected with human A2a receptor; effect on basal cAMP via SPAP; ratio to NECA; minimum values (about 20% inactive impurity). The procedure:
as §1, §2

T3 sequence (P29274 whole entry): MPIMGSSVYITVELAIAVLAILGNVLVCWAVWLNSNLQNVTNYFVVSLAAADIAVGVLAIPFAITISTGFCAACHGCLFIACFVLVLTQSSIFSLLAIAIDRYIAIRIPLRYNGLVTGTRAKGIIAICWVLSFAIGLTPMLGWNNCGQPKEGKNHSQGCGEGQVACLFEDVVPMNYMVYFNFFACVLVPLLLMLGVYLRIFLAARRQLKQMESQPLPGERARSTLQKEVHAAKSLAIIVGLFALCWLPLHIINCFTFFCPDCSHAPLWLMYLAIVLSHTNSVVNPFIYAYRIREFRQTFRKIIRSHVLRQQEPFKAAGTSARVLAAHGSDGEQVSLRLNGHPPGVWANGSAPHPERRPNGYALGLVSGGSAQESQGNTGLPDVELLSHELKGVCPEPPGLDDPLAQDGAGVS

Take `OCCCn1nnc(C2OC(n3cnc4c(NCC(c5ccccc5)c5ccccc5)nc(NCCN5CCCCC5)nc43)C(O)C2O)n1` [Example 1, 2R,3R,4S,5R)-2-[6-(2,2-Diphenyl-ethylamino)-2-(2-piperidin-1-yl-ethylamino)-purin-9-yl]-5-[2-(3-hydroxy-propyl)-2H-tetrazol-5-yl]-tetrahydro-furan-3,4-diol bis(trifluoroacetate)]: the “A1 EC50 as a ratio of that of NECA” value in test [1] is recorded as 434.8. Moreover, the “A3 EC50 as a ratio of that of NECA” value in test [2] is greater than 93. For the same compound, in test [3], the “A2a EC50 as a ratio of that of NECA” value stood at 22.64.

Take `CCCn1nnc(C2OC(n3cnc4c(NCC(c5ccccc5)c5ccccc5)nc(NCCN5CCCCC5)nc43)C(O)C2O)n1` [Example 2, 2R,3R,4S,5R)-2-[6-(2,2-Diphenyl-ethylamino)-2-(2-piperidin-1-yl-ethylamino)-purin-9-yl]-5-(2-propyl-2H-tetrazo-5-tetrahydro-furan-3,4-diol bis(trifluoroacetate)]: the “A1 EC50 as a ratio of that of NECA” value in test [1] turned out to be 755.4. Further, the “A3 EC50 as a ratio of that of NECA” value in test [2] was greater than 93. For the same compound, the “A2a EC50 as a ratio of that of NECA” value in test [3] stood at 30.95.

Consider `CC(=O)OCCn1nnc(C2OC(n3cnc4c(NCC(c5ccccc5)c5ccccc5)nc(NCCN5CCCCC5)nc43)C(O)C2O)n1` (stereo not drawn) [Example 3, Acetic acid 2-(5-{5R-[6-(2,2-diphenyl-ethylamino)-2-(2-piperidin-1-yl-ethylamino)-purin-9-yl]-3S,4R-dihydroxy-tetrahydro-furan-2R -yl}-tetrazol-2-yl)-ethyl ester bis(trifluoroacetate)], for which the “A1 EC50 as a ratio of that of NECA” value in test [1] was 310.5. Besides, the “A3 EC50 as a ratio of that of NECA” value in test [2] is on record as greater than 93. In addition, in test [3], the “A2a EC50 as a ratio of that of NECA” value is given as 16.59.

`O=C(O)C(F)(F)F.O=C(O)C(F)(F)F.O[C@@H]1[C@H](O)[C@@H](c2nnn(CC3CC3)n2)O[C@H]1n1cnc2c(NCC(c3ccccc3)c3ccccc3)nc(NCCN3CCCCC3)nc21` [Example 4]: the “A1 EC50 as a ratio of that of NECA” value in test [1] stood at 1318.09. The “A3 EC50 as a ratio of that of NECA” value in test [2] is greater than 93. Also, the “A2a EC50 as a ratio of that of NECA” value in test [3] came out at 37.24.

On to `OCCn1nnc(C2OC(n3cnc4c(NCC(c5ccccc5)c5ccccc5)nc(NCCN5CCCCC5)nc43)C(O)C2O)n1` [Example 5, (2R,3R,4S,5R)-2-[6-(2,2-Diphenyl-ethylamino)-2-(2-piperidin-1-yl-ethylamino)-purin-9-yl]-5-[2-(2-hydroxy-ethyl)-2H-tetrazo-5-yl]-tetrahydro-furan-3,4-diol bis(trifluoroacetate)], for which, in test [1], the “A1 EC50 as a ratio of that of NECA” value came to 159.5. Besides, the “A3 EC50 as a ratio of that of NECA” value in test [2] is recorded as greater than 94. Moreover, the “A2a EC50 as a ratio of that of NECA” value in test [3] turned out to be 10.54.

For `O=C(O)C(F)(F)F.O=C(O)C(F)(F)F.O[C@@H]1[C@H](O)[C@@H](c2nnn(CCCl)n2)O[C@H]1n1cnc2c(NCC(c3ccccc3)c3ccccc3)nc(NCCN3CCCCC3)nc21` [Example 6], the “A1 EC50 as a ratio of that of NECA” value in test [1] was found to be 411.9. In addition, in test [2], the “A3 EC50 as a ratio of that of NECA” value was greater than 97. Moreover, the “A2a EC50 as a ratio of that of NECA” value in test [3] worked out at 24.05.

On to `O=C(O)C(F)(F)F.O=C(O)C(F)(F)F.O[C@@H]1[C@H](O)[C@@H](c2nnn(C3CCC3)n2)O[C@H]1n1cnc2c(NCC(c3ccccc3)c3ccccc3)nc(NCCN3CCCCC3)nc21` [Example 7], for which, in test [1], the “A1 EC50 as a ratio of that of NECA” value is 597.82. In addition, the “A3 EC50 as a ratio of that of NECA” value in test [2] is reported as greater than 95. The “A2a EC50 as a ratio of that of NECA” value in test [3] came out at 22.98.

For the compound `C=CCn1nnc(C2OC(n3cnc4c(NCC(c5ccccc5)c5ccccc5)nc(NCCN5CCCCC5)nc43)C(O)C2O)n1` [Example 8, (2R,3S,4R,5R)-2-(2-Allyl 2H-tetrazol-5-[6-(2,2-diphenyl-ethylamino)-2-(2-piperidin-1-yl-ethylamino)-purin-9-yl]-tetrahydro-furan-3,4-diolbis(trifluoroacetate)], in test [1], the “A1 EC50 as a ratio of that of NECA” value is listed as greater than 6131. Moreover, the “A3 EC50 as a ratio of that of NECA” value in test [2] is given as greater than 165. Moreover, the “A2a EC50 as a ratio of that of NECA” value in test [3] is given as 26.38.
